Experimental data: patent publication US20240067632A1, “WEE1 Degrading Compounds and Uses Thereof” (Bristol-Myers Squibb Company, priority 2022, published 2024)

Molecular target: T1, WEE1 (Homo sapiens, UniProt P30291+Q96SW2)
T1 construct: C-terminal ePL-tagged (DiscoverX, Fremont, CA) full-length WEE1 expression construct; expressed in transfected cells; host or cells: LentiX-HEK293T (Invitrogen), lentiviral transduction; co-expressing GSPT1-GN (G576N, lacking the first 158 amino acids)
Test: WEE1-ePL degradation assay (LentiX-WEE1-ePL-GSPT1-ND cells, InCELL Hunter luminescence, 4 h)
Format: cell-based
Settings: 293T-LentiX WEE1-ePL cells; for DC50: read-out: 293T-LentiX WEE1-ePL Degradation 4 hr (EC50)
Description: To generate LentiX-WEE1-ePL-GSPT1-ND cells for the WEE1 degradation assay, LentiX-HEK293T (Invitrogen) were transduced by lentivirus with a C-terminal ePL-tagged (DiscoverX, Fremont, CA) full-length WEE1 expression construct. […] Cells were selected and maintained in complete DMEM media (DMEM, 10% Heat Inactivated FBS, 400 μg/mL Geneticin, and 1 μg/mL puromycin at 37 C and 5% CO2). Cells were passaged every 3-4 days by reseeding 1×10^6 cells in a T150 flask.
Cells were dispensed into 384-well white plates (Corning #3570, NY) that were pre-spotted with compounds using an acoustic dispenser (Echo acoustic transfer system, Beckman Coulter Life Sciences, Carlsbad, CA) as a 10-point dose-response curve with a 3-fold dilution starting at either 1 uM or 10 uM and including a DMSO control. Twenty-five microliters of media containing 2500 cells for LentiX-oeWEE1-ePL was dispensed per well. Assay plates were incubated at 37° C. with 5% CO2 for four hours (WEE1) After incubation, 25 μL of the InCELL Hunter™ Detection Reagent Working Solution (DiscoverX, Fremont, CA) was added to each well and incubated at room temperature for 30 minutes protected from light. After 30 minutes, luminescence was read on a PHERAstar luminometer (Cary, NC).
To determine the half-maximal effective concentration (EC50) values for WEE1-ePL degradation, a four parameter logistic model was used: (Sigmoidal Dose-Response Model) (FIT=(A+((B−A)/1+((C/x)^D)))) where C is the inflection point (EC50), D is the Hill slope, and A and B are the low and high limits of the fit respectively). The lower limit of the fit (value A) is referred to as Ymin. […] The maximum limit constraint, Ymax, is similarly derived using DMSO control. The curves were processed and evaluated using Activity Base (IDBS, Alameda, CA).

[1] = lower limit of the fit (0 = luciferase inhibitor, Ymax = DMSO control)
[2] = lower limit of the fit (Ymin=0 luciferase inhibitor, Ymax DMSO control)

SMILES	293T-LentiX WEE1-ePL Degradation 4 hr (Ymin) [1]	293T-LentiX WEE1-ePL Degradation 4 hr (Ymin) [2]	DC50
O=C1CCC(N2C(=O)c3ccc(O[C@@H]4CCN(Cc5cnc6ccccc6c5)C4)cc3C2=O)C(=O)N1 (stereo partly drawn) [2-(2,6-dioxopiperidin-3-yl)-5-{[(3R)-1-[(quinolin-3-yl)methyl]pyrrolidin-3-yl]oxy}-2,3-dihydro-1H-isoindole-1,3-dione]	86.31	–	–
O=C1CCC(N2C(=O)c3ccc(O[C@@H]4CCN(Cc5ccnc6ccccc56)C4)cc3C2=O)C(=O)N1 (stereo partly drawn) [2-(2,6-dioxopiperidin-3-yl)-5-{[(3R)-1-[(quinolin-4-yl)methyl]pyrrolidin-3-yl]oxy}-2,3-dihydro-1H-isoindole-1,3-dione]	90.1	–	–
O=C1CCC(N2C(=O)c3ccc(O[C@@H]4CCN(Cc5cccc6ncccc56)C4)cc3C2=O)C(=O)N1 (stereo partly drawn) [2-(2,6-dioxopiperidin-3-yl)-5-{[(3R)-1-[(quinolin-5-yl)methyl]pyrrolidin-3-yl]oxy}-2,3-dihydro-1H-isoindole-1,3-dione]	89.045	–	–
O=C1CCC(N2C(=O)c3ccc(O[C@@H]4CCN(Cc5ccc6ncccc6c5)C4)cc3C2=O)C(=O)N1 (stereo partly drawn) [2-(2,6-dioxopiperidin-3-yl)-5-{[(3R)-1-[(quinolin-6-yl)methyl]pyrrolidin-3-yl]oxy}-2,3-dihydro-1H-isoindole-1,3-dione]	83.71	–	–
O=C1CCC(N2Cc3cc(O[C@@H]4CCN(c5cnccn5)C4)ccc3C2=O)C(=O)N1 (stereo partly drawn) [3-(1-oxo-5-{[(3R)-1-(pyrazin-2-yl)pyrrolidin-3-yl]oxy}-2,3-dihydro-1H-isoindol-2-yl)piperidine-2,6-dione]	–	110	–
O=C1CCC(N2Cc3cc(O[C@@H]4CCN(Cc5c[nH]c6ncccc56)C4)ccc3C2=O)C(=O)N1 (stereo partly drawn) [3-(1-oxo-5-{[(3R)-1-({1H-pyrrolo[2,3-b]pyridin-3-yl}methyl)pyrrolidin-3-yl]oxy}-2,3-dihydro-1H-isoindol-2-yl)piperidine-2,6-dione]	–	87.61	–
O=C1CCC(N2Cc3cc(O[C@@H]4CCN(Cc5c[nH]c6cnccc56)C4)ccc3C2=O)C(=O)N1 (stereo partly drawn) [3-(1-oxo-5-{[(3R)-1-({1H-pyrrolo[2,3-c]pyridin-3-yl}methyl)pyrrolidin-3-yl]oxy}-2,3-dihydro-1H-isoindol-2-yl)piperidine-2,6-dione]	–	93.39	–
O=C1CCC(N2Cc3cc(O[C@@H]4CCN(Cc5cnc6ccccc6c5)C4)ccc3C2=O)C(=O)N1 (stereo partly drawn) [3-(1-oxo-5-{[(3R)-1-[(quinolin-3-yl)methyl]pyrrolidin-3-yl]oxy}-2,3-dihydro-1H-isoindol-2-yl)piperidine-2,6-dione]	–	83.91	–
O=C1CCC(N2Cc3cc(O[C@@H]4CCN(Cc5ccnc6ccccc56)C4)ccc3C2=O)C(=O)N1 (stereo partly drawn) [3-(1-oxo-5-{[(3R)-1-[(quinolin-4-yl)methyl]pyrrolidin-3-yl]oxy}-2,3-dihydro-1H-isoindol-2-yl)piperidine-2,6-dione]	–	87.11	–
O=C1CCC(N2Cc3cc(O[C@@H]4CCN(Cc5cccc6ncccc56)C4)ccc3C2=O)C(=O)N1 (stereo partly drawn) [3-(1-oxo-5-{[(3R)-1-[(quinolin-5-yl)methyl]pyrrolidin-3-yl]oxy}-2,3-dihydro-1H-isoindol-2-yl)piperidine-2,6-dione]	–	91.51	–
O=C1CCC(N2Cc3cc(O[C@@H]4CCN(Cc5ccc6ncccc6c5)C4)ccc3C2=O)C(=O)N1 (stereo partly drawn) [3-(1-oxo-5-{[(3R)-1-[(quinolin-6-yl)methyl]pyrrolidin-3-yl]oxy}-2,3-dihydro-1H-isoindol-2-yl)piperidine-2,6-dione]	–	90.24	–
O=C1CCC(N2Cc3cc(O[C@H]4CCN(Cc5cccc6ncncc56)C4)ccc3C2=O)C(=O)N1 (stereo partly drawn) [3-(1-oxo-5-{[(3S)-1-[(quinazolin-5-yl)methyl]pyrrolidin-3-yl]oxy}-2,3-dihydro-1H-isoindol-2-yl)piperidine-2,6-dione]	58.74	–	408 nM
O=C1CCC(N2Cc3cc(O[C@H]4CCN(Cc5cccc6nccnc56)C4)ccc3C2=O)C(=O)N1 (stereo partly drawn) [3-(1-oxo-5-{[(3S)-1-[(quinoxalin-5-yl)methyl]pyrrolidin-3-yl]oxy}-2,3-dihydro-1H-isoindol-2-yl)piperidine-2,6-dione]	53.34	–	174 nM
O=C1CCC(N2Cc3ccc(O[C@@H]4CCN(Cc5cnc6ccccc6c5)C4)cc3C2=O)C(=O)N1 (stereo partly drawn) [3-(1-oxo-6-{[(3R)-1-[(quinolin-3-yl)methyl]pyrrolidin-3-yl]oxy}-2,3-dihydro-1H-isoindol-2-yl)piperidine-2,6-dione]	89.42	–	–
Cc1nc(C)c(CN2CC[C@@H](Oc3ccc4c(c3)CN(C3CCC(=O)NC3=O)C4=O)C2)s1 (stereo partly drawn) [3-(5-{[(3R)-1-[(2,4-dimethyl-1,3-thiazol-5-yl)methyl]pyrrolidin-3-yl]oxy}-1-oxo-2,3-dihydro-1H-isoindol-2-yl)piperidine-2,6-dione]	–	94.2	–
COC[C@@H]1CCC[C@@H](c2ccc3cc(CN4CC[C@H](Oc5ccc6c(c5)CN(C5CCC(=O)NC5=O)C6=O)C4)ccc3n2)C1 (stereo partly drawn) [3-(5-{[(3S)-1-({2-[(1R,3R)-3-(methoxymethyl)cyclohexyl]quinolin-6-yl}methyl)pyrrolidin-3-yl]oxy}-1-oxo-2,3-dihydro-1H-isoindol-2-yl)piperidine-2,6-dione]	–	26.54	2.17 nM
COC[C@H]1CCC[C@@H](c2ccc3cc(CN4CC[C@H](Oc5ccc6c(c5)CN(C5CCC(=O)NC5=O)C6=O)C4)ccc3n2)C1 (stereo partly drawn) [3-(5-{[(3S)-1-({2-[(1R,3S)-3-(methoxymethyl)cyclohexyl]quinolin-6-yl}methyl)pyrrolidin-3-yl]oxy}-1-oxo-2,3-dihydro-1H-isoindol-2-yl)piperidine-2,6-dione]	–	26.32	1.82 nM
Nc1cccc(COc2ccccc2CN2CC[C@H](Oc3ccc4c(c3)CN(C3CCC(=O)NC3=O)C4=O)C2)c1 (stereo partly drawn) [3-(5-{[(3S)-1-({2-[(3-aminophenyl)methoxy]phenyl}methyl)pyrrolidin-3-yl]oxy}-1-oxo-2,3-dihydro-1H-isoindol-2-yl)piperidine-2,6-dione]	92.17	–	–
Nc1cccc(COc2cccc(CN3CC[C@H](Oc4ccc5c(c4)CN(C4CCC(=O)NC4=O)C5=O)C3)c2)c1 (stereo partly drawn) [3-(5-{[(3S)-1-({3-[(3-aminophenyl)methoxy]phenyl}methyl)pyrrolidin-3-yl]oxy}-1-oxo-2,3-dihydro-1H-isoindol-2-yl)piperidine-2,6-dione]	78.15	–	818 nM
O=C1CCC(N2Cc3cc(O[C@H]4CCN(Cc5cccc6nccn56)C4)ccc3C2=O)C(=O)N1 (stereo partly drawn) [3-(5-{[(3S)-1-({imidazo[1,2-a]pyridin-5-yl}methyl)pyrrolidin-3-yl]oxy}-1-oxo-2,3-dihydro-1H-isoindol-2-yl)piperidine-2,6-dione]	57.26	–	183 nM
O=C1CCC(N2Cc3cc(O[C@H]4CCN(Cc5ccc6cnccc6n5)C4)ccc3C2=O)C(=O)N1 (stereo partly drawn) [3-(5-{[(3S)-1-[(1,6-naphthyridin-2-yl)methyl]pyrrolidin-3-yl]oxy}-1-oxo-2,3-dihydro-1H-isoindol-2-yl)piperidine-2,6-dione]	42.7	–	109 nM
O=C1CCC(N2Cc3cc(O[C@H]4CCN(Cc5ccnc6ncccc56)C4)ccc3C2=O)C(=O)N1 (stereo partly drawn) [3-(5-{[(3S)-1-[(1,8-naphthyridin-4-yl)methyl]pyrrolidin-3-yl]oxy}-1-oxo-2,3-dihydro-1H-isoindol-2-yl)piperidine-2,6-dione]	96.5	–	–
Cc1nccc(CN2CC[C@H](Oc3ccc4c(c3)CN(C3CCC(=O)NC3=O)C4=O)C2)c1C (stereo partly drawn) [3-(5-{[(3S)-1-[(2,3-dimethylpyridin-4-yl)methyl]pyrrolidin-3-yl]oxy}-1-oxo-2,3-dihydro-1H-isoindol-2-yl)piperidine-2,6-dione]	43.42	–	54.5 nM
